Assay results published in ChEMBL document CHEMBL3137667, “[Drug-induced liver injury; fourteenth updated edition of the bibliographic database of liver injuries and related drugs]” (Gastroenterol Clin Biol, 2004).

Assays:
[1] = Highest frequency of moderate liver toxicity observed during clinical trials, expressed as a percentage. [column '% BIOL' in source]; conditions: human
[2] = Highest frequency of acute liver toxicity observed during clinical trials, expressed as a percentage. [column '% AIGUE' in source]; conditions: human
[3] = Presence of at least one case with successful reintroduction. [column 'REINT' in source]; conditions: human
[4] = Times to onset, minimal and maximal, observed in the indexed observations. [column 'DELAI' in source]; conditions: human
[5] = Proposed mechanism(s) of liver damage. [column 'MEC' in source]; conditions: human
[6] = human, serum
[7] = human, serum; remark: listed apart in the source
[8] = human
[9] = human; remark: listed apart in the source
[10] = human; remark: listed apart in the source
[11] = human, serum, 4383 h
[12] = human; remark: listed apart in the source
[13] = human; remark: listed apart in the source
[14] = human; remark: listed apart in the source
[15] = human; remark: listed apart in the source
[16] = human; remark: listed apart in the source
[17] = human; remark: listed apart in the source
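Wherever Hepatotoxicity (association with vascular disease) is given: count of indexed literature references reporting vascular liver injury in humans, e.g. peliosis hepatitis, hepatic veno-occlusive disease or Budd-Chiari syndrome.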
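Wherever Hepatotoxicity (benign tumour) is given: value is a count of indexed literature references citing a benign tumour confirmed by histopathology.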
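Wherever Hepatotoxicity (choleostasis) is given: human cholestatic liver injury, shown by histopathology or by peak ALT or AST elevation over alkaline phosphatase ratio below 2, value counts indexed literature reports.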
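Wherever Hepatotoxicity (chronic liver disease) is given: chronic liver injury confirmed by histopathology or persistently raised serum aminotransferase activity beyond 6 months, value given as the count of indexed literature references.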
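Wherever Hepatotoxicity (cirrhosis) is given: value is a count of indexed literature references reporting cirrhosis confirmed by histopathology.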
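Wherever Hepatotoxicity (cytolytic) is given: human cytolytic liver injury, shown by histopathology or by a ratio above 5 of peak ALT or AST elevation to alkaline phosphatase elevation, value counts indexed references.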
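Wherever Hepatotoxicity (granulomatous hepatitis) is given: value is a count of indexed literature references reporting granulomatous liver disease confirmed by histopathology.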
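Wherever Hepatotoxicity (malignant tumour) is given: malignant tumour confirmed by histopathology, value gives the count of indexed literature references reporting it.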
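Wherever Hepatotoxicity (severe hepatitis) is given: human clinical data: severe hepatitis, meaning potentially life-threatening liver failure or clinically observed cases, the value counts how many indexed literature references report it.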
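Wherever Hepatotoxicity (steatosis) is given: steatosis confirmed by histopathology, value is the count of indexed references.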

Cc1onc(-c2ccccc2Cl)c1C(=O)N[C@@H]1C(=O)N2[C@@H]1SC(C)(C)[C@@H]2C(=O)O [CLOXACILLIN]
Hepatotoxicity (moderate) [1]: 25%
Hepatotoxicity (acute) [2]: 0%
Hepatotoxicity (successful reintroduction) [3]: yes
Hepatotoxicity (time to onset) [4]: 2 days - 1 month
Hepatotoxicity (mechanism) [5]: Allergic
Hepatotoxicity (moderate) [6]: 5
Hepatotoxicity (acute) [7]: 9
Hepatotoxicity (cytolytic) [8]: 0
Hepatotoxicity (choleostasis) [9]: 8
Hepatotoxicity (severe hepatitis) [10]: 0
Hepatotoxicity (chronic liver disease) [11]: 0
Hepatotoxicity (cirrhosis) [12]: 0
Hepatotoxicity (granulomatous hepatitis) [13]: 0
Hepatotoxicity (association with vascular disease) [14]: 0
Hepatotoxicity (steatosis) [15]: 0
Hepatotoxicity (malignant tumour) [16]: 0
Hepatotoxicity (benign tumour) [17]: 0

CC(C)N(CCC(C(N)=O)(c1ccccc1)c1ccccn1)C(C)C (stereo unspecified) [DISOPYRAMIDE]
Hepatotoxicity (moderate) [1]: 0.3%
Hepatotoxicity (acute) [2]: 0.1%
Hepatotoxicity (successful reintroduction) [3]: yes
Hepatotoxicity (time to onset) [4]: 2 weeks - 1 year
Hepatotoxicity (mechanism) [5]: Allergic
Hepatotoxicity (moderate) [6]: 1
Hepatotoxicity (acute) [7]: 14
Hepatotoxicity (cytolytic) [8]: 6
Hepatotoxicity (choleostasis) [9]: 10
Hepatotoxicity (severe hepatitis) [10]: 0
Hepatotoxicity (chronic liver disease) [11]: 1
Hepatotoxicity (cirrhosis) [12]: 0
Hepatotoxicity (granulomatous hepatitis) [13]: 0
Hepatotoxicity (association with vascular disease) [14]: 0
Hepatotoxicity (steatosis) [15]: 0
Hepatotoxicity (malignant tumour) [16]: 0
Hepatotoxicity (benign tumour) [17]: 0

CC[C@@H](CO)NCCN[C@@H](CC)CO [ETHAMBUTOL]
Hepatotoxicity (moderate) [1]: 0%
Hepatotoxicity (acute) [2]: 0%
Hepatotoxicity (successful reintroduction) [3]: yes
Hepatotoxicity (time to onset) [4]: 1.5 months - 2 months
Hepatotoxicity (mechanism) [5]: Allergic
Hepatotoxicity (moderate) [6]: 1
Hepatotoxicity (acute) [7]: 6
Hepatotoxicity (cytolytic) [8]: 1
Hepatotoxicity (choleostasis) [9]: 1
Hepatotoxicity (severe hepatitis) [10]: 0
Hepatotoxicity (chronic liver disease) [11]: 0
Hepatotoxicity (cirrhosis) [12]: 0
Hepatotoxicity (granulomatous hepatitis) [13]: 0
Hepatotoxicity (association with vascular disease) [14]: 0
Hepatotoxicity (steatosis) [15]: 0
Hepatotoxicity (malignant tumour) [16]: 0
Hepatotoxicity (benign tumour) [17]: 0

CCc1cc(C(N)=S)ccn1 [ETHIONAMIDE]
Hepatotoxicity (moderate) ([1]; Liver): 37%
Hepatotoxicity (acute) ([2]; Liver): 5.4%
Hepatotoxicity (successful reintroduction) [3]: yes
Hepatotoxicity (time to onset) [4]: 1 month - 2 years
Hepatotoxicity (mechanism) ([5]; Liver): Allergic
Hepatotoxicity (moderate) [6]: 11
Hepatotoxicity (acute) [7]: 15
Hepatotoxicity (cytolytic) ([8]; Liver): 7
Hepatotoxicity (choleostasis) ([9]; Liver): 6
Hepatotoxicity (severe hepatitis) ([10]; Liver): 2
Hepatotoxicity (chronic liver disease) [11]: 0
Hepatotoxicity (cirrhosis) [12]: 0
Hepatotoxicity (granulomatous hepatitis) ([13]; Liver): 0
Hepatotoxicity (association with vascular disease) [14]: 0
Hepatotoxicity (steatosis) [15]: 0
Hepatotoxicity (malignant tumour) [16]: 0
Hepatotoxicity (benign tumour) [17]: 0

OC(Cn1cncn1)(Cn1cncn1)c1ccc(F)cc1F [FLUCONAZOLE]
Hepatotoxicity (moderate) ([1]; Liver): 83.3%
Hepatotoxicity (acute) ([2]; Liver): 6.3%
Hepatotoxicity (successful reintroduction) [3]: yes
Hepatotoxicity (time to onset) [4]: 2 days - 10 months
Hepatotoxicity (mechanism) ([5]; Liver): Dose-dependant
Hepatotoxicity (moderate) [6]: 84
Hepatotoxicity (acute) [7]: 25
Hepatotoxicity (cytolytic) ([8]; Liver): 15
Hepatotoxicity (choleostasis) ([9]; Liver): 13
Hepatotoxicity (severe hepatitis) ([10]; Liver): 7
Hepatotoxicity (chronic liver disease) [11]: 0
Hepatotoxicity (cirrhosis) [12]: 0
Hepatotoxicity (granulomatous hepatitis) ([13]; Liver): 1
Hepatotoxicity (association with vascular disease) [14]: 0
Hepatotoxicity (steatosis) [15]: 1
Hepatotoxicity (malignant tumour) [16]: 0
Hepatotoxicity (benign tumour) [17]: 0

Nc1nc(O)c2ncn(COC(CO)CO)c2n1 [GANCICLOVIR]
Hepatotoxicity (moderate) [1]: 55%
Hepatotoxicity (acute) [2]: 0%
Hepatotoxicity (successful reintroduction) [3]: yes
Hepatotoxicity (time to onset) [4]: 1 week - 26 days
Hepatotoxicity (mechanism) [5]: Dose-dependant
Hepatotoxicity (moderate) [6]: 9
Hepatotoxicity (acute) [7]: 1
Hepatotoxicity (cytolytic) [8]: 1
Hepatotoxicity (choleostasis) [9]: 1
Hepatotoxicity (severe hepatitis) [10]: 0
Hepatotoxicity (chronic liver disease) [11]: 0
Hepatotoxicity (cirrhosis) [12]: 0
Hepatotoxicity (granulomatous hepatitis) [13]: 0
Hepatotoxicity (association with vascular disease) [14]: 0
Hepatotoxicity (steatosis) [15]: 0
Hepatotoxicity (malignant tumour) [16]: 0
Hepatotoxicity (benign tumour) [17]: 0

NC(=O)NO [HYDROXYUREA]
Hepatotoxicity (moderate) [1]: 12.5%
Hepatotoxicity (acute) [2]: 0%
Hepatotoxicity (successful reintroduction) [3]: yes
Hepatotoxicity (time to onset) [4]: 1 day - 3 months
Hepatotoxicity (mechanism) [5]: Allergic
Hepatotoxicity (moderate) [6]: 5
Hepatotoxicity (acute) [7]: 4
Hepatotoxicity (cytolytic) [8]: 3
Hepatotoxicity (choleostasis) [9]: 1
Hepatotoxicity (severe hepatitis) [10]: 1
Hepatotoxicity (chronic liver disease) [11]: 0
Hepatotoxicity (cirrhosis) [12]: 0
Hepatotoxicity (granulomatous hepatitis) [13]: 2
Hepatotoxicity (association with vascular disease) [14]: 0
Hepatotoxicity (steatosis) [15]: 0
Hepatotoxicity (malignant tumour) [16]: 0
Hepatotoxicity (benign tumour) [17]: 0

O=C(CCCCC(=O)Nc1c(I)cc(I)c(C(=O)O)c1I)Nc1c(I)cc(I)c(C(=O)O)c1I [IODIPAMIDE]
Hepatotoxicity (moderate) [1]: 18.3%
Hepatotoxicity (acute) [2]: 0%
Hepatotoxicity (successful reintroduction) [3]: yes
Hepatotoxicity (time to onset) [4]: 3 days - 1 week
Hepatotoxicity (mechanism) [5]: Dose-dependant
Hepatotoxicity (moderate) [6]: 2
Hepatotoxicity (acute) [7]: 6
Hepatotoxicity (cytolytic) [8]: 6
Hepatotoxicity (choleostasis) [9]: 0
Hepatotoxicity (severe hepatitis) [10]: 0
Hepatotoxicity (chronic liver disease) [11]: 0
Hepatotoxicity (cirrhosis) [12]: 0
Hepatotoxicity (granulomatous hepatitis) [13]: 0
Hepatotoxicity (association with vascular disease) [14]: 0
Hepatotoxicity (steatosis) [15]: 1
Hepatotoxicity (malignant tumour) [16]: 0
Hepatotoxicity (benign tumour) [17]: 0

CC(C)NNC(=O)COc1ccc(Cl)cc1 [IPROCLOZIDE]
Hepatotoxicity (moderate) [1]: 0%
Hepatotoxicity (acute) [2]: 0%
Hepatotoxicity (successful reintroduction) [3]: yes
Hepatotoxicity (time to onset) [4]: 1 week - 1 month
Hepatotoxicity (mechanism) [5]: Toxic Metabolite
Hepatotoxicity (moderate) [6]: 0
Hepatotoxicity (acute) [7]: 3
Hepatotoxicity (cytolytic) [8]: 3
Hepatotoxicity (choleostasis) [9]: 1
Hepatotoxicity (severe hepatitis) [10]: 2
Hepatotoxicity (chronic liver disease) [11]: 0
Hepatotoxicity (cirrhosis) [12]: 0
Hepatotoxicity (granulomatous hepatitis) [13]: 0
Hepatotoxicity (association with vascular disease) [14]: 0
Hepatotoxicity (steatosis) [15]: 0
Hepatotoxicity (malignant tumour) [16]: 0
Hepatotoxicity (benign tumour) [17]: 0

Cc1oncc1C(=O)Nc1ccc(C(F)(F)F)cc1 [LEFLUNOMIDE]
Hepatotoxicity (moderate) [1]: 56.7%
Hepatotoxicity (acute) [2]: 10%
Hepatotoxicity (successful reintroduction) [3]: yes
Hepatotoxicity (time to onset) [4]: 4 weeks - 20 months
Hepatotoxicity (mechanism) [5]: Dose-dependant
Hepatotoxicity (moderate) [6]: 36
Hepatotoxicity (acute) [7]: 6
Hepatotoxicity (cytolytic) [8]: 5
Hepatotoxicity (choleostasis) [9]: 0
Hepatotoxicity (severe hepatitis) [10]: 3
Hepatotoxicity (chronic liver disease) [11]: 0
Hepatotoxicity (cirrhosis) [12]: 1
Hepatotoxicity (granulomatous hepatitis) [13]: 0
Hepatotoxicity (association with vascular disease) [14]: 0
Hepatotoxicity (steatosis) [15]: 1
Hepatotoxicity (malignant tumour) [16]: 0
Hepatotoxicity (benign tumour) [17]: 0

CN1C[C@H](CC#N)C[C@@H]2c3cccc4[nH]c(Cl)c(c34)C[C@H]21 [LERGOTRILE]
Hepatotoxicity (moderate) [1]: 63.2%
Hepatotoxicity (acute) [2]: 15.8%
Hepatotoxicity (successful reintroduction) [3]: yes
Hepatotoxicity (time to onset) [4]: 4 days - 5 months
Hepatotoxicity (mechanism) [5]: Dose-dependant
Hepatotoxicity (moderate) [6]: 6
Hepatotoxicity (acute) [7]: 5
Hepatotoxicity (cytolytic) [8]: 4
Hepatotoxicity (choleostasis) [9]: 0
Hepatotoxicity (severe hepatitis) [10]: 0
Hepatotoxicity (chronic liver disease) [11]: 0
Hepatotoxicity (cirrhosis) [12]: 0
Hepatotoxicity (granulomatous hepatitis) [13]: 0
Hepatotoxicity (association with vascular disease) [14]: 0
Hepatotoxicity (steatosis) [15]: 0
Hepatotoxicity (malignant tumour) [16]: 0
Hepatotoxicity (benign tumour) [17]: 0

Cc1cccc(Nc2ccccc2C(=O)O)c1C [MEFENAMIC ACID]
Hepatotoxicity (moderate) ([1]; Liver): 0%
Hepatotoxicity (acute) ([2]; Liver): 0%
Hepatotoxicity (successful reintroduction) [3]: yes
Hepatotoxicity (time to onset) [4]: 2 weeks
Hepatotoxicity (mechanism) ([5]; Liver): Allergic
Hepatotoxicity (moderate) [6]: 0
Hepatotoxicity (acute) [7]: 3
Hepatotoxicity (cytolytic) ([8]; Liver): 2
Hepatotoxicity (choleostasis) ([9]; Liver): 1
Hepatotoxicity (severe hepatitis) ([10]; Liver): 1
Hepatotoxicity (chronic liver disease) [11]: 0
Hepatotoxicity (cirrhosis) [12]: 0
Hepatotoxicity (granulomatous hepatitis) ([13]; Liver): 0
Hepatotoxicity (association with vascular disease) [14]: 0
Hepatotoxicity (steatosis) [15]: 0
Hepatotoxicity (malignant tumour) [16]: 0
Hepatotoxicity (benign tumour) [17]: 0

CC(=O)Oc1cc(C(C)C)c(OCCN(C)C)cc1C [MOXISYLYTE]
Hepatotoxicity (moderate) [1]: 0%
Hepatotoxicity (acute) [2]: 0%
Hepatotoxicity (successful reintroduction) [3]: yes
Hepatotoxicity (time to onset) [4]: 8 days - 3 months
Hepatotoxicity (mechanism) [5]: Allergic, Dose-dependant
Hepatotoxicity (moderate) [6]: 1
Hepatotoxicity (acute) [7]: 5
Hepatotoxicity (cytolytic) [8]: 5
Hepatotoxicity (choleostasis) [9]: 1
Hepatotoxicity (severe hepatitis) [10]: 0
Hepatotoxicity (chronic liver disease) [11]: 0
Hepatotoxicity (cirrhosis) [12]: 0
Hepatotoxicity (granulomatous hepatitis) [13]: 0
Hepatotoxicity (association with vascular disease) [14]: 0
Hepatotoxicity (steatosis) [15]: 0
Hepatotoxicity (malignant tumour) [16]: 0
Hepatotoxicity (benign tumour) [17]: 0
